Laboratory results as given in patent US20240300923A1, “IRAK4 Inhibitors” (ASTRAZENECA AB, priority 2022, published 2024).
pIC50: −log10 of the molar value.

Columns and labels:
IRAK4 [1] = target: T1, IRAK4 (Homo sapiens (Human), UniProt Q9NWZ3); experiment: IRAK4 phosphorylation cell assay (IL-1β-stimulated Karpas-299 cells); type: cell-based; conditions: IRAK4 auto-phosphorylation (pIRAK4 Thr345/Ser346) in IL-1β-stimulated Karpas-299 cells; geometric mean of at least 2 experiments
Protocol: IRAK4 Phosphorylation Cell Assay
The activation of IRAK4 by TLR or IL-1R ligands leads to IRAK4 auto-phosphorylation, which can be prevented by IRAK4 kinase inhibitors. The effect of IRAK4 inhibitor compounds on IRAK4 auto-phosphorylation was assessed in IL-1β-stimulated Karpas-299 cells as a measurement of cellular potency. Karpas-299 cells were cultured in RPMI 1640 (Gibco 61870-010) containing 10% FBS (Gibco #10270). Cells were plated at 2×10^4 cells per well in poly-D-lysine coated 384 well plates (Corning #356663) to which compounds had been added at various concentrations (10 point half log dose response with a final top concentration of 30 μM) using an Echo 655 (Labcyte Inc). Cells were centrifuged (250 g, 4 mins), incubated at 37° C. for 1 h, then stimulated with 22.7 ng/mL recombinant IL-1β (R&D Systems, #201-LB-025) at 37° C. for 10 mins, followed by fixation in 4% paraformaldehyde for 20 mins and permeabilization in ice-cold 70% MeOH in PBS for 30 mins. Cells were washed twice with phosphate-buffered saline (PBS) on a BlueWasher (BlueCatBio) then blocked with PBS containing 10% FBS for 20 mins. Blocking solution was removed with a BlueWasher and cells were stained with anti-pIRAK4 (Thr345/Ser346) (CST, #11927, 1:400) in blocking buffer with 0.05% Tween-20 for 1 h, then washed twice with PBS containing 0.05% Tween-20 on a BlueWasher, followed by staining with a Alexa 647-conjugated secondary anti-rabbit IgG antibody (CST, #4414, 1:2,000) and Hoechst 33342 (Sigma, 1:2,000) in blocking buffer with 0.05% Tween-20 for 30 mins. Finally, the cells were washed twice with PBS containing 0.05% Tween-20 and imaged on an ImageXpress Micro (Molecular Devices) with a 10× air objective using the appropriate filters. Images were analysed in Columbus (PerkinElmer) and the fluorescence intensity per cell from the secondary antibody was quantified. The quantified data were analysed in Genedata Screener 19 (Genedata AG). […] IC50 values are the geometric mean of at least 2 experiments.

IRAK4 [2] = target: T1, IRAK4; experiment: IRAK4 enzyme assay (mass spectrometry readout); type: biochemical; conditions: human recombinant IRAK4 0.2 nM, 3 mM ATP; geometric mean of at least 2 experiments
Protocol: Potency of IRAK4 Inhibitor Compounds in IRAK4 Enzyme Assay
The inhibitory activity of compounds against IRAK4 were determined in an enzymatic assay using mass spectrometry readout. Ten point half-log compound concentration response curves, with a top concentration of 1 μM or 10 μM, were generated from 10 mM stocks of compound solubilized in DMSO using an Echo 655 (Labcyte Inc) and added to 384 well assay plates (Greiner #781280). To the assay plates, 10 μL of human recombinant IRAK4 protein (Life Technologies #PV4002) diluted to a final concentration of 0.2 nM in assay buffer (50 mM Tris-HCl pH 7.4, 10 mM MgCl, 5 mM glutathione, 0.01% BSA, 3 mM ATP) was added. The enzyme was incubated with the compounds at room temperature for 15 minutes before a peptide substrate ([…], Innovagen custom synthesis, 10 mM in DMSO) was added to each well to a final concentration of 10 μM using an Echo 655 (Labcyte Inc). After two hours at room temperature, the reaction was stopped with 65 μL of 0.4% formic acid (Merck #33015). The unphosphorylated and phosphorylated peptide were measured by LC-MS/MS on a Waters TQ-S mass spectrometer. Peaks were integrated using the TargetLynx software and the ratios between phosphorylated and unphosphorylated peptides were calculated. Curves were fitted and compound potencies determined in Genedata Screener 19 (Genedata AG). IC50 values are the geometric mean of at least 2 experiments.

human cKit kinase = human cKit kinase (Homo sapiens (Human), UniProt P10721); experiment: cKit enzyme assay (LANCE, Eurofins CEREP); type: biochemical; conditions: human recombinant enzyme, 50 μM ATP; geometric mean of at least n=2, * = single experiment
Sequence of human cKit kinase (P10721 26-976): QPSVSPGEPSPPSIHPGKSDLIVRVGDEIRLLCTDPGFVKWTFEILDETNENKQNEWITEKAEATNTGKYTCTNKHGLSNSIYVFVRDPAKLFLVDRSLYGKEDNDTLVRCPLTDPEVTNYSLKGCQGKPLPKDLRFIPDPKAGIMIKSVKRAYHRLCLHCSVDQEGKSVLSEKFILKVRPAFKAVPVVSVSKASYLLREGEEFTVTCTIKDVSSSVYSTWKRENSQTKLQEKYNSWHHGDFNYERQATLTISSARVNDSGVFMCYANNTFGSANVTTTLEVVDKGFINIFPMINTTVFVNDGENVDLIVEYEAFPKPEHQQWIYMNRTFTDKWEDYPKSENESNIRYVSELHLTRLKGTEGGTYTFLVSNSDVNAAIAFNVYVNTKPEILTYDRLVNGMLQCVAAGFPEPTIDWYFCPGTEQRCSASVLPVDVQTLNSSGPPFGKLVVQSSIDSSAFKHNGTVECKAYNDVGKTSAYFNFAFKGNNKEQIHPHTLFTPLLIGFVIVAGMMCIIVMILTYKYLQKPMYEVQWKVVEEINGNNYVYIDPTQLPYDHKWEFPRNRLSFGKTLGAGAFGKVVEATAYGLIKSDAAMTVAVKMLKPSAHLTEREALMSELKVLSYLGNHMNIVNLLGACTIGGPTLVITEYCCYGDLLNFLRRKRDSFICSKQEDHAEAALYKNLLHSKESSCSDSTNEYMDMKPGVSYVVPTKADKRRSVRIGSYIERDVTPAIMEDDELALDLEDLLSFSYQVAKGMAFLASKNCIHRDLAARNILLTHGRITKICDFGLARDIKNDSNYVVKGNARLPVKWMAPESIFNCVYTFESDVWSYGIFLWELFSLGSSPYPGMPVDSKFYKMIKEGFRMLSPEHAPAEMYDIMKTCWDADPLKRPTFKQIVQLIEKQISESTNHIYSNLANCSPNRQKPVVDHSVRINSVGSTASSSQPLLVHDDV
Protocol: Potency of IRAK4 Inhibitor Compounds in cKit Enzyme Assay
Evaluation of the effects of the IRAK4 inhibitor compounds on the activity of the human cKit kinase quantified by measuring the phosphorylation of the substrate Ulight-TK peptide using a human recombinant enzyme and the LANCE® detection method at Eurofins CEREP, catalog item 3070, SOP no 1C768: The test compound, reference compound or water (control) are mixed with the enzyme (0.38 ng) in a buffer containing 40 mM Hepes/Tris (pH 7.4), 0.8 mM EGTA/Tris, 8 mM MgCl2, 1.6 mM DTT and 0.008% Tween 20. Thereafter, the reaction is initiated by adding 100 nM of the substrate Ulight-TK peptide and 50 μM ATP, and the mixture is incubated for 30 min at room temperature. For control basal measurements, the enzyme is omitted from the reaction mixture. Following incubation, the reaction is stopped by adding 13 mM EDTA. After 5 min, the anti-phopho-PT66 antibody labeled with europium chelate is added. After 60 more min, the fluorescence transfer is measured at lex=337 nm, lem=620 nm and lem=665 nm using a microplate reader (Envision, Perkin Elmer). The enzyme activity is determined by dividing the signal measured at 665 nm by that measured at 620 nm (ratio). The results are expressed as a percent inhibition of the control enzyme activity. The standard inhibitory reference compound is staurosporine, which is tested in each experiment at several concentrations to obtain an inhibition curve from which its IC50 value is calculated.
Data presented are the geometric mean of at least n=2, or as denoted by an*are obtained from a single experiment. […] Kinase selectivity can be a key determinant of clinical utility as off target toxicity can be reduced or eliminated.

T1 sequence (Q9NWZ3 whole entry): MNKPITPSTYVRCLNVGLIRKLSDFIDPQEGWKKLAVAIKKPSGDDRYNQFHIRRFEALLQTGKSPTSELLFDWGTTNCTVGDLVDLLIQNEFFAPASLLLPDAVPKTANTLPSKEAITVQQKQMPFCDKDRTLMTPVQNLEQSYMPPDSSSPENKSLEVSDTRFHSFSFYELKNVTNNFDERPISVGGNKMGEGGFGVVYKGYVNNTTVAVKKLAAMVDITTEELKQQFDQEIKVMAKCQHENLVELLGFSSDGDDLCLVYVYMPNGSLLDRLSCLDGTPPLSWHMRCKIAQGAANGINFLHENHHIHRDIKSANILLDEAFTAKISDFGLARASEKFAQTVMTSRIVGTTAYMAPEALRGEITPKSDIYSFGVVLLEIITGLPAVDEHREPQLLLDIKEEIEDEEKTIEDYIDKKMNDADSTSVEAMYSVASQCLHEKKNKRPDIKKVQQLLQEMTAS

SMILES	pIC50 (IRAK4 [1])	pIC50 (IRAK4 [2])	pIC50 (human cKit kinase)
COc1cc2nn([C@@H]3CCC(N(C)C(C)=O)C[C@H]3C)cc2cc1C(=O)Nc1cccn(C)c1=O (single isomer, unassigned) [Example 2]	6.62	7.97	
COc1cc2nn([C@@H]3CCC(N(C)C(C)=O)C[C@H]3C)cc2cc1C(=O)Nc1cccn(C)c1=O (single isomer, unassigned) [Example 3]	7.68	9.15	4.86
COc1cc2nn([C@@H]3CC[C@H](N(C)C(C)=O)C[C@@H]3C)cc2cc1C(=O)Nc1cccn(C)c1=O (single isomer, unassigned) [Example 6]	5.54	6.70	
COc1cc2nn([C@@H]3CC[C@H](N(C)C(C)=O)C[C@@H]3C)cc2cc1C(=O)Nc1cccn(C)c1=O (single isomer, unassigned) [Example 7]	5.35	6.34	
COc1cc2nn(C3CCC(c4cccnn4)CC3)cc2cc1C(=O)Nc1cccn(C)c1=O (single isomer, unassigned) [Example 23, 6-Methoxy-N-(1-methyl-2-oxo-1,2-dihydropyridin-3-yl)-2-(4-(pyridazin-3-yl)cyclohexyl)-2H-indazole-5-carboxamide]	6.73	8.30	
COc1cc2nn(C3CCC(c4cccnn4)CC3)cc2cc1C(=O)Nc1cccn(C)c1=O (single isomer, unassigned) [Example 24, 6-Methoxy-N-(1-methyl-2-oxo-1,2-dihydropyridin-3-yl)-2-(4-(pyridazin-3-yl)cyclohexyl)-2H-indazole-5-carboxamide]	7.77	8.92	4.06
COc1cc2nn([C@H]3CC[C@H](n4ccnc4C(C)O)CC3)cc2cc1C(=O)Nc1cccn(C)c1=O (single isomer, unassigned) [Example 28, 2-((1r,4r)-4-(2-(1-hydroxyethyl)-1H-imidazol-1-yl)cyclohexyl)-6-methoxy-N-(1-methyl-2-oxo-1,2-dihydropyridin-3-yl)-2H-indazole-5-carboxamide]	7.51	9.30	4.97
COc1cc2nn([C@H]3CC[C@H](n4ccnc4C(C)O)CC3)cc2cc1C(=O)Nc1cccn(C)c1=O (single isomer, unassigned) [Example 29, 2-((1r,4r)-4-(2-(1-hydroxyethyl)-1H-imidazol-1-yl)cyclohexyl)-6-methoxy-N-(1-methyl-2-oxo-1,2-dihydropyridin-3-yl)-2H-indazole-5-carboxamide]	7.72	9.22	5.08
COc1cc2nn([C@H]3CC[C@H](N(C)C(C)=O)CC3)cc2cc1C(=O)Nc1cccn(C)c1=O [Example 1, 6-Methoxy-N-(1-methyl-2-oxo-1,2-dihydropyridin-3-yl)-2-((1r,4r)-4-(N-methylacetamido)cyclohexyl)-2H-indazole-5-carboxamide]	7.52	8.96	4.89
COc1cc2nn([C@@H]3CC[C@@H](N(C)C(C)=O)C[C@@H]3C)cc2cc1C(=O)Nc1cccn(C)c1=O [Example 4, 6-Methoxy-N-(1-methyl-2-oxo-1,2-dihydropyridin-3-yl)-2-((1R,2S,4R)-2-methyl-4-(N-methylacetamido)cyclohexyl)-2H-indazole-5-carboxamide]	7.17	8.41	4.74
COc1cc2nn([C@H]3CC[C@H](N(C)C(C)=O)C[C@H]3C)cc2cc1C(=O)Nc1cccn(C)c1=O [Example 5, 6-Methoxy-N-(1-methyl-2-oxo-1,2-dihydropyridin-3-yl)-2-((1S,2R,4S)-2-methyl-4-(N-methylacetamido)cyclohexyl)-2H-indazole-5-carboxamide]	7.62	9.10	< 4.40
COc1cc2nn([C@H]3CC[C@H](N(C)C(=O)[C@@H](C)O)CC3)cc2cc1C(=O)Nc1cccn(C)c1=O [Example 8, 2-((1R,4r)-4-((R)-2-Hydroxy-N-methylpropanamido)cyclohexyl)-6-methoxy-N-(1-methyl-2-oxo-1,2-dihydropyridin-3-yl)-2H-indazole-5-carboxamide]	7.54	9.10	5.15
COc1cc2nn([C@H]3CC[C@H](N(C)C(=O)[C@@H](C)O)CC3)cc2cc1C(=O)Nc1cccn(CF)c1=O [Example 9, N-(1-(Fluoromethyl)-2-oxo-1,2-dihydropyridin-3-yl)-2-((1R,4r)-4-((R)-2-hydroxy-N-methylpropanamido)cyclohexyl)-6-methoxy-2H-indazole-5-carboxamide]	7.82	9.40	5.48
COc1cc2nn([C@H]3CC[C@H](N(C)C(=O)[C@@H](C)O)CC3)cc2cc1C(=O)Nc1cccn(CC#N)c1=O [Example 10, N-(1-(Cyanomethyl)-2-oxo-1,2-dihydropyridin-3-yl)-2-((1R,4r)-4-((R)-2-hydroxy-N-methylpropanamido)cyclohexyl)-6-methoxy-2H-indazole-5-carboxamide]	7.43	8.85	5.60
COc1cc2nn([C@H]3CC[C@H](N(C)C(=O)[C@H](C)O)CC3)cc2cc1C(=O)Nc1cccn(C2CC2)c1=O [Example 11, N-(1-Cyclopropyl-2-oxo-1,2-dihydropyridin-3-yl)-2-((1S,4r)-4-((S)-2-hydroxy-N-methylpropanamido)cyclohexyl)-6-methoxy-2H-indazole-5-carboxamide]	7.64	9.05	4.44
COc1cc2nn([C@H]3CC[C@H](N(C)C(=O)[C@@H](C)O)CC3)cc2cc1C(=O)Nc1cccn(-c2cn[nH]c2)c1=O [Example 14, 2-((1R,4r)-4-((R)-2-Hydroxy-N-methylpropanamido)cyclohexyl)-6-methoxy-N-(2-oxo-1-(1H-pyrazol-4-yl)-1,2-dihydropyridin-3-yl)-2H-indazole-5-carboxamide]	7.82	9.52	
COc1cc2nn([C@H]3CC[C@]4(CC3)COC(=O)N4C)cc2cc1C(=O)Nc1cccn(C)c1=O [Example 21, 6-Methoxy-N-(1-methyl-2-oxo-1,2-dihydropyridin-3-yl)-2-((5r,8r)-1-methyl-2-oxo-3-oxa-1-azaspiro[4.5]decan-8-yl)-2H-indazole-5-carboxamide]	7.70	9.40	
